# Measured values reported in patent EP0908457B1, “3-(1,2-benzisothiazol- and isoxazol-5-Y1)-2,4(1H,3H)-pyrimidinedione or thione and 3-(1,2-benzisothiazol- and isoxazol-5-y1)-4(3H)-pyrimidinone or thione herbicidal agents” (BASF AKTIENGESELLSCHAFT, priority 1997, dated 1999).
# Legend:
# [1] = tested on: Cyperus iria; experiment: Preemergence weed control under flooded paddy conditions, CYPIR (Rice Flatsedge); type: in vivo; settings: flooded paddy; for herbicidal effect rating, CYPIR: preemergence, rated 3-4 weeks after treatment; for CYPIR: preemergence weeds, herbicidal effect rating 0-9, three to four weeks after treatment
# [2] = tested on: Echinochloa oryzoides (Ard.) Fritsch.; experiment: Preemergence weed control under flooded paddy conditions, ECHORC (Watergrass (Calif.)); type: in vivo; settings: flooded paddy; for herbicidal effect rating, ECHORC: preemergence, rated 3-4 weeks after treatment; for ECHORC: preemergence weeds, herbicidal effect rating 0-9, three to four weeks after treatment
# [3] = tested on: Oryza sativa, (L.) Tebonnet; experiment: Rice tolerance to post-transplant applications under flooded paddy conditions (Example 187), ORYSAT (Rice, Tebonnet); settings: for herbicidal effect rating ORYSAT: rated 3-4 weeks after treatment; for ORYSAT: herbicidal effect rating 0-9, three to four weeks after treatment; as to herbicidal effect rating ORYSAT: meaning of each grade not given here
# [4] = tested on: Cyperus serotinus, Rottb.; experiment: Preemergence weed control under flooded paddy conditions, CYPSE (Flatsedge); type: in vivo; settings: for herbicidal effect rating, CYPSE: preemergence, rated 3-4 weeks after treatment; for CYPSE: preemergence weeds, herbicidal effect rating 0-9, three to four weeks after treatment
# [5] = tested on: Monochoria vaginalis, Presl.; experiment: Preemergence weed control under flooded paddy conditions, MOOVA (Monochoria); type: in vivo; settings: flooded paddy; for herbicidal effect rating, MOOVA: preemergence, rated 3-4 weeks after treatment; for MOOVA: preemergence weeds, herbicidal effect rating 0-9, three to four weeks after treatment
# [6] = tested on: Sagittaria pygmaea, L.; experiment: Preemergence weed control under flooded paddy conditions, SAGPY (Arrowhead (Pygmaea)); type: in vivo; settings: flooded paddy; for herbicidal effect rating, SAGPY: preemergence, rated 3-4 weeks after treatment; for SAGPY: preemergence weeds, herbicidal effect rating 0-9, three to four weeks after treatment
smiles,measurement,setting,value
"CCCS(=O)(=O)NC(=O)COc1ccccc1-c1nsc2ccc(-n3c(=O)cc(C(F)(F)F)n(C)c3=O)cc12 [Example 556, Acetamide, 2-{o-{5-[3,6-dihydro-3-methyl-2,6-dioxo-4-(trifluoromethyl)-1(2H)-pyrimidinyl]-1,2-benzisothiazol-3-yl}phenoxy}-N-(propylsulfonyl)-]","herbicidal effect rating, CYPIR",[1]; Rate 0.0320 kg/ha,0.0
same,"herbicidal effect rating, CYPIR",[1]; Rate 0.0620 kg/ha,2.0
same,"herbicidal effect rating, CYPIR",[1]; Rate 0.1250 kg/ha,7.0
same,"herbicidal effect rating, CYPIR",[1]; Rate 0.2500 kg/ha,9.0
same,"herbicidal effect rating, CYPIR",[1]; Rate 0.5000 kg/ha,3.0
same,"herbicidal effect rating, ECHORC",[2]; Rate 0.0320 kg/ha,2.9
same,"herbicidal effect rating, ECHORC",[2]; Rate 0.0620 kg/ha,3.6
same,"herbicidal effect rating, ECHORC",[2]; Rate 0.1250 kg/ha,4.4
same,"herbicidal effect rating, ECHORC",[2]; Rate 0.2500 kg/ha,9.0
same,"herbicidal effect rating, ECHORC",[2]; Rate 0.5000 kg/ha,9.0
same,herbicidal effect rating ORYSAT,[3]; Rate 0.0320 kg/ha,4.0
same,herbicidal effect rating ORYSAT,[3]; Rate 0.0620 kg/ha,7.0
same,herbicidal effect rating ORYSAT,[3]; Rate 0.1250 kg/ha,8.0
same,herbicidal effect rating ORYSAT,[3]; Rate 0.2500 kg/ha,9.0
same,herbicidal effect rating ORYSAT,[3]; Rate 0.5000 kg/ha,5.0
same,"herbicidal effect rating, CYPSE",[4]; Rate 0.0320 kg/ha,2.0
same,"herbicidal effect rating, CYPSE",[4]; Rate 0.0620 kg/ha,2.0
same,"herbicidal effect rating, CYPSE",[4]; Rate 0.1250 kg/ha,9.0
same,"herbicidal effect rating, CYPSE",[4]; Rate 0.2500 kg/ha,9.0
same,"herbicidal effect rating, CYPSE",[4]; Rate 0.5000 kg/ha,0.0
same,"herbicidal effect rating, MOOVA",[5]; Rate 0.0320 kg/ha,9.0
same,"herbicidal effect rating, MOOVA",[5]; Rate 0.0620 kg/ha,9.0
same,"herbicidal effect rating, MOOVA",[5]; Rate 0.1250 kg/ha,9.0
same,"herbicidal effect rating, MOOVA",[5]; Rate 0.2500 kg/ha,9.0
same,"herbicidal effect rating, MOOVA",[5]; Rate 0.5000 kg/ha,9.0
same,"herbicidal effect rating, SAGPY",[6]; Rate 0.0320 kg/ha,0.0
same,"herbicidal effect rating, SAGPY",[6]; Rate 0.0620 kg/ha,0.0
same,"herbicidal effect rating, SAGPY",[6]; Rate 0.1250 kg/ha,6.0
same,"herbicidal effect rating, SAGPY",[6]; Rate 0.2500 kg/ha,4.0
same,"herbicidal effect rating, SAGPY",[6]; Rate 0.5000 kg/ha,3.0
"Cn1c(C(F)(F)F)cc(=O)n(-c2ccc3snc(C(=O)NS(=O)(=O)Cc4ccc(C(C)(C)C)cc4)c3c2)c1=O [Example 405, 1,2-Benzisothiazole-3-carboxamide, N-[(p-tert-butylbenzyl)sulfonyl]-5-[3,6-dihydro-3-methyl-2,6-dioxo-4-(trifluoromethyl)-1(2H)-pyrimidinyl]-]",CYPIR,[1]; 0.0320 kg/ha,4.0
same,CYPIR,[1]; 0.0620 kg/ha,4.0
same,CYPIR,[1]; 0.1250 kg/ha,7.0
same,CYPIR,[1]; 0.2500 kg/ha,8.0
same,ECHORC,[2]; 0.0320 kg/ha,7.0
same,ECHORC,[2]; 0.0620 kg/ha,7.0
same,ECHORC,[2]; 0.1250 kg/ha,9.0
same,ECHORC,[2]; 0.2500 kg/ha,9.0
same,ORYSAT,[3]; 0.0320 kg/ha,0.0
same,ORYSAT,[3]; 0.0620 kg/ha,0.0
same,ORYSAT,[3]; 0.1250 kg/ha,2.0
same,ORYSAT,[3]; 0.2500 kg/ha,2.0
same,CYPSE,[4]; 0.0320 kg/ha,0.0
same,CYPSE,[4]; 0.0620 kg/ha,0.0
same,CYPSE,[4]; 0.1250 kg/ha,0.0
same,CYPSE,[4]; 0.2500 kg/ha,0.0
same,MOOVA,[5]; 0.0320 kg/ha,6.0
same,MOOVA,[5]; 0.0620 kg/ha,6.0
same,MOOVA,[5]; 0.1250 kg/ha,7.0
same,MOOVA,[5]; 0.2500 kg/ha,7.0
same,SAGPY,[6]; 0.0320 kg/ha,0.0
same,SAGPY,[6]; 0.0620 kg/ha,0.0
same,SAGPY,[6]; 0.1250 kg/ha,5.0
same,SAGPY,[6]; 0.2500 kg/ha,6.0
